The values below come from patent US6451854B1, “α-amino acid phenyl ester derivatives” (Akzo Nobel N.V., priority 1998, dated 2002).

Counter-ions that a name gives are not always drawn.

In one data set the target is GABAA receptors. The data set is described as follows: inhibition of [35S]-TBPS binding to rat whole brain membranes. The following applies: concentration required to inhibit 50% of [35S]-TBPS binding. The source says: γ-Aminobutyric acid (GABA) is the major inhibitory neurotransmitter within the central nervous system and it is probable that compounds potentiating the effects of GABA at GABAA receptors will induce anaesthesia (S. A. Zimmerman, M. V. Jones and N. L. Harrison, J. Pharmacol. Exp. Therap. 1994, 270, 987-991; N. P. Franks and W. R. Lieb, Nature 1994, 367, 607-614). Indeed there is compelling evidence that many hypnotics exert their biological activity via modulation of GABAA receptors, including steroids, barbiturates, benzodiazepines and propofol (D. L. Tanelian, P. Kosek, I. Mody and M. B. Maclver, Anesthesiology 1993, 78, 757-776).
The in vitro effect of the compounds of the invention at GABAA receptors was assessed through determination of their ability to inhibit [^35S]-TBPS ([^35S]-tert-butyl bicyclophosphorothionate) binding to rat whole brain membranes. The concentration of α-amino acid phenyl ester derivative required to inhibit 50% of binding of [^35S]-TBPS was determined. These in vitro experiments were carried out as described in detail by Anderson et al., J.Med.Chem. 1997, 40, 1668-1681.

Another data set relates to mice. The data set is described as follows: hypnotic activity: loss of righting reflex after intravenous administration in mice. It is filed as in vivo. To be noted: dose causing loss of righting reflex for minimum 30 seconds in 50% of mice, intravenous injection over 10 seconds; for ED50: Mus musculus, iv, read-out: HD50 (the source's name). As to the method: The hypnotic potency of the α-amino acid phenyl ester derivatives of the invention was determined upon their intravenous administration in mice. The dose required to cause a loss of righting reflex for a minimum period of 30 seconds in 50% of treated mice after intravenous injection over 10 seconds was determined. This dose is termed the HD50 (hypnotic dose50) and is expressed in μmol.kg^−1.

What is called melting point is the temperature, or range, at which the solid turns liquid. Compound `COCCN(CCOC)C(C)C(=O)Oc1c(OC)cc(C)cc1OC` (racemic) (as salt: hydrochloride) [Example 7e, (±)-2-[N-bis(2-methoxyethyl)amino]propionic acid, 2,6-dimethoxy-4-methylphenyl ester hydrochloride (1:1) salt] registered a melting point of 96 to 97 °C.
One may read the IC50 as the midpoint of a concentration-inhibition curve. As to `CCCC(C(=O)Oc1c(OC)cccc1OC)N(CCOC)CCOC` (racemic) [Example 7s, (±)-2-[N-bis(2-methoxyethyl)amino]pentanoic acid, 2,6-dimethoxyphenyl ester hydrochloride (1:1) salt], on GABAA receptors, the IC50 was 4.2 µM. The ED50 in the data set on mice was 12 µmol/kg.
The like results for `COc1cc(C)cc(OC)c1OC(=O)[C@@H](C)N(C)Cc1ccccc1` [Example 7h, R-(+)-2-[N-methylbenzylamino]propionic acid, 2,6-dimethoxy-4-methylphenyl ester hydrochloride (1:1) salt] were, in that order, 27 µM and 56 µmol/kg.
In the same order, the values of `CCOCCN(CCOCC)[C@H](CC)C(=O)Oc1c(OC)cccc1OC` [Example 7z, R-(+)-2-[N-bis(2-ethoxyethyl)amino]butyric acid, 2,6-dimethoxyphenyl ester hydrochloride (1:1) salt] are 18 µM and 19 µmol/kg.
For the compound `COCCN(CCOC)C(C)C(=O)Oc1c(OC)cccc1OC` (racemic) (as salt: hydrochloride) [Example 7f, (±)-2-[N-bis(2-methoxyethyl)amino]propionic acid, 2,6-dimethoxyphenyl ester hydrochloride (1:1) salt], the melting point was in the range of 114 to 116 °C.
As to `CCC(C(=O)Oc1c(OC)cccc1OC)N(C)Cc1ccccc1` (racemic) [Example 7k, (±)-2-[N-methylbenzylamino]butyric acid, 2,6-dimethoxyphenyl ester hydrochloride (1:1) salt], the IC50 on GABAA receptors stood at 13 µM. Moreover, the ED50 with mice turned out to be 40 µmol/kg.
With `CCOCCN(CCOCC)C(C)C(=O)Oc1c(OC)cccc1OC` (racemic) [Example 7d, (±)-2-[N-bis(2-ethoxyethyl)amino]propionic acid, 2,6-dimethoxyphenyl ester hydrochloride (1:1) salt], the IC50 on GABAA receptors is at most 100 µM. In the data set on mice, the ED50 came out at 68 µmol/kg.
In the same order, the values of `CCC(C(=O)Oc1c(OC(C)C)cccc1OC(C)C)N(CCOC)CCOC` (racemic) [Example 7o, (±)-2-[N-bis(2-methoxyethyl)amino]butyric acid, 2,6-di-(1-methyl)ethoxyphenyl ester hydrochloride (1:1) salt] are under 100 µM and 64 µmol/kg.
In the case of `CCOCCN(CCOCC)C(C)C(=O)Oc1c(OC)cccc1OC` (single isomer, unassigned; (+)) [Example 7w, (+)-2-[N-bis(2-ethoxyethyl)amino]propionic acid, 2,6-dimethoxyphenyl ester hydrochloride (1:1) salt], at GABAA receptors, the half-inhibitory concentration (IC50) was about 100 µM. In the data set with mice, this compound registered an HD50 of 35 µmol/kg.
`CC[C@@H](C(=O)Oc1c(OC)cc(C)cc1OC)N(CCOC)CCOC` [Example 7v, S-(−)-2-[N-bis(2-methoxyethyl)amino]butyric acid, 2,6-dimethoxy-4-methylphenyl ester hydrochloride (1:1) salt]: the IC50 on GABAA receptors is 14 µM. Besides, in the data set with mice, the ED50 amounted to 35 µmol/kg.
Turning to `CCC(C(=O)Oc1c(OC)cccc1OC)N(CCOC)CCOC` (racemic) [Example 7c, (±)-2-[N-bis(2-methoxyethyl)amino]butyric acid, 2,6-dimethoxyphenyl ester hydrochloride (1:1) salt], the IC50 at GABAA receptors was 10 µM. Also, in the data set on mice, the ED50 is 19 µmol/kg.
In the same order, the values of `COc1cccc(OC)c1OC(=O)C(C)N(C)CCc1ccccc1` (stereo not drawn) [Example 7m, 2-[N-methylphenethylamino]propionic acid, 2,6-dimethoxyphenyl ester hydrochloride (1:1) salt] are 59 µM and 38 µmol/kg.
For `CC[C@H](C(=O)Oc1c(OC)cc(C)cc1OC)N(CCOC)CCOC` [Example 7a, R-(+)-2-[N-bis(2-methoxyethyl)amino]butyric acid, 2,6-dimethoxy-4-methylphenyl ester hydrochloride (1:1) salt], the IC50 at GABAA receptors was determined as 22 µM. Moreover, the ED50 in the data set with mice came to 21 µmol/kg.
